Measurements from US11267965B2, “Polymeric materials for biomedical applications” (Aleo BME, Inc., priority 2015, dated 2022).

What was measured:
[1] = tested on: Schwann cells; assay: Schwann cell migration, transwell model; format: cell-based; conditions: 4 hr migration, compared to 4, 100 and 200 mg/L folate
[2] = tested on: MAP-2 protein expression in PC12 cells; assay: Western blot analysis of microtubule-associated protein-2 (MAP-2) in PC12 cells; format: cell-based, rat; conditions: 14 days
[3] = tested on: Schwann cells; assay: Schwann cell migration, microchannel-based migration assay (live cell imaging); conditions: left reservoir 4 mg/L folate, right reservoir 50 mg/L folate; channel width 200 μm
[4] = tested on: Schwann cells; assay: Quantification of global DNA methylation; format: cell-based; conditions: second day of culture
[5] = tested on: PC-12 cells; assay: PC12 cell neurite outgrowth assay; format: cell-based, rat
[6] = tested on: PC12 cells; assay: Quantification of global DNA methylation; format: cell-based, rat; conditions: second day of culture

In the case of `Nc1nc2ncc(CNc3ccc(C(=O)N[C@@H](CCC(=O)O)C(=O)O)cc3)nc2c(=O)[nH]1` [folic acid], the “folate concentration of medium toward which the highest number of Schwann cells migrated” value [1] is reported as 50 mg/L, the “MAP-2 protein expression relative to control medium (1.3 mg/L folate)” value ([2]; 50 mg/L folate, in the presence of NGF (50 ng/mL)) is reported as 2.56 folds and the “MAP-2 protein expression relative to control sample (1.3 mg/L folate)” value ([2]; 50 and 100 mg/L folate, in the absence of NGF) is reported as 2.22-2.30 folds. The “Schwann cell migration direction in microchannels” value [3] was “migration of Schwann cell from low folate medium to high folate medium”, the “folate concentration with highest global DNA methylation” value [4] was 50 mg/L and the “neurite outgrowth (average neurite length)” value ([5]; 50-100 mg/L folate with 50 ng/mL NGF, day 7, control medium 1.3 mg/L folate <100 μm) was > 150 μm. The “folic acid concentration with highest neurite outgrowth” value ([5]; day 3 of culture, neural differentiation medium with 5 ng/ml neural growth factor) was 50 mg/L, the “PC-12 neurite outgrowth rate” value ([5]; folic acid supplemented medium) was “promote PC-12 neurite outgrowth rate in a dose-dependent manner” and the “optimal folic acid supplement concentration for promoting PC-12 differentiation and neurite outgrowth” value ([5]; within the concentrations investigated) was 50 to 100 mg/L. The “folate concentration with highest global DNA methylation” value [6] was 50 mg/L.
